Assay results reported in the supplement of paper PMC10307832.

What was measured:
Experiment in all cases: relative viability (nuclei count vs DMSO), 5 days (fraction); higher = more cells survive
Palbociclib + Navitoclax = compound: CC(=O)c1c(C)c2cnc(Nc3ccc(N4CCNCC4)cn3)nc2n(C2CCCC2)c1=O [Palbociclib] + CC1(C)CCC(c2ccc(Cl)cc2)=C(CN2CCN(c3ccc(C(=O)NS(=O)(=O)c4ccc(N[C@H](CCN5CCOCC5)CSc5ccccc5)c(S(=O)(=O)C(F)(F)F)c4)cc3)CC2)C1 [Navitoclax] (partner 0.5 µM)
How it was run: (§1)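 Medians of duplicate plates are given as relative viability. That measure is the nuclei count in treated wells divided by the count in vehicle wells. Counts were taken on 4× images of lung cancer cell lines in 1536-well plates, 5 days after pin-tool dosing the day after seeding with one drug alone or a fixed anchor-drug dose plus five library-drug doses (not always all listed) in √10 steps.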

Palbociclib + Lapatinib = compound: CC(=O)c1c(C)c2cnc(Nc3ccc(N4CCNCC4)cn3)nc2n(C2CCCC2)c1=O [Palbociclib] + CS(=O)(=O)CCNCc1ccc(-c2ccc3ncnc(Nc4ccc(OCc5cccc(F)c5)c(Cl)c4)c3c2)o1 [Lapatinib] (partner 2 µM)
How it was run: as §1

Palbociclib + Alpelisib = compound: CC(=O)c1c(C)c2cnc(Nc3ccc(N4CCNCC4)cn3)nc2n(C2CCCC2)c1=O [Palbociclib] + Cc1nc(NC(=O)N2CCC[C@H]2C(N)=O)sc1-c1ccnc(C(C)(C)C(F)(F)F)c1 [Alpelisib] (partner 2 µM)
How it was run: as §1

Palbociclib + Luminespib = compound: CC(=O)c1c(C)c2cnc(Nc3ccc(N4CCNCC4)cn3)nc2n(C2CCCC2)c1=O [Palbociclib] + CCNC(=O)c1noc(-c2cc(C(C)C)c(O)cc2O)c1-c1ccc(CN2CCOCC2)cc1 [Luminespib] (partner 0.01 µM)
How it was run: as §1

Row | Cell Line | relative viability (Palbociclib + Navitoclax; first compound 0.01 µM) | relative viability (Palbociclib + Navitoclax; first compound 0.03162 µM) | relative viability (Palbociclib + Navitoclax; first compound 0.1 µM) | relative viability (Palbociclib + Navitoclax; first compound 0.3162 µM) | relative viability (Palbociclib + Navitoclax; first compound 1 µM) | relative viability (Palbociclib + Lapatinib; first compound 0.01 µM) | relative viability (Palbociclib + Lapatinib; first compound 0.03162 µM) | relative viability (Palbociclib + Lapatinib; first compound 0.1 µM) | relative viability (Palbociclib + Lapatinib; first compound 0.3162 µM) | relative viability (Palbociclib + Lapatinib; first compound 1 µM) | relative viability (Palbociclib + Alpelisib; first compound 0.01 µM) | relative viability (Palbociclib + Alpelisib; first compound 0.03162 µM) | relative viability (Palbociclib + Alpelisib; first compound 0.1 µM) | relative viability (Palbociclib + Alpelisib; first compound 0.3162 µM) | relative viability (Palbociclib + Alpelisib; first compound 1 µM) | relative viability (Palbociclib + Luminespib; first compound 0.01 µM) | relative viability (Palbociclib + Luminespib; first compound 0.03162 µM) | relative viability (Palbociclib + Luminespib; first compound 0.1 µM) | relative viability (Palbociclib + Luminespib; first compound 0.3162 µM) | relative viability (Palbociclib + Luminespib; first compound 1 µM)
1 | IA-LM | 0.589 | 0.43 | 0.234 | 0.206 | 0.119 | 0.701 | 0.41 | 0.392 | 0.264 | 0.143 | 0.826 | 0.675 | 0.456 | 0.373 | 0.144 |  |  |  |  | 
2 | LCLC-103H |  |  |  |  |  |  |  |  |  |  | 0.756 | 1.03 | 0.821 | 0.796 | 0.688 | 0.978 | 0.808 | 0.848 | 0.718 | 0.584
3 | NCI-H358 |  |  |  |  |  | 0.341 | 0.337 | 0.214 | 0.244 | 0.217 | 0.777 | 0.709 | 0.395 | 0.312 | 0.257 | 0.325 |  | 0.176 | 0.308 | 0.134
4 | NCI-H441 |  | 0.593 | 0.336 | 0.484 | 0.572 |  |  |  |  |  |  | 0.635 | 0.677 | 0.426 | 0.418 | 0.317 | 0.371 | 0.38 | 0.26 | 0.229
5 | NCI-H522 |  |  |  |  |  |  |  |  |  |  |  |  |  |  |  | 1.2 |  | 1.19 | 1.19 | 1.18
6 | NCI-H650 |  |  |  |  |  | 1.3 |  | 0.657 | 0.818 | 0.434 | 1.24 |  | 0.79 | 0.775 | 0.624 | 0.921 | 0.613 | 0.629 | 0.793 | 0.609
7 | NCI-H661 |  |  |  |  |  | 0.491 | 0.437 | 0.477 | 0.345 | 0.333 | 0.92 | 0.686 | 0.583 | 0.382 | 0.508 | 0.868 | 0.789 | 0.597 | 0.523 | 0.416
8 | NCI-H1299 | 1.09 | 0.949 | 0.909 | 0.846 | 0.715 | 0.952 | 0.877 | 0.86 | 0.809 | 0.642 | 1 | 1.02 | 0.949 | 0.956 | 0.865 |  |  |  |  | 
9 | NCI-H1563 |  |  |  |  |  | 0.952 | 0.852 | 0.955 | 0.844 | 0.759 | 0.896 | 0.887 | 0.897 | 0.808 | 0.765 | 0.479 | 0.444 | 0.432 | 0.577 | 0.489
10 | NCI-H1650 | 1.41 | 1.07 | 0.948 | 1.03 | 0.673 | 0.774 | 0.258 | 0.263 | 0.578 | 0.351 |  |  |  |  |  | 0.178 | 0.211 | 0.186 | 0.186 | 0.172
11 | NCI-H1703 | 1.18 | 0.756 | 0.753 | 0.394 | 0.28 | 0.99 |  | 0.833 | 0.602 | 0.451 | 0.298 | 0.346 | 0.301 | 0.231 | 0.182 |  |  |  |  | 
12 | SW 900 |  |  |  |  |  |  |  |  |  |  |  |  |  |  |  | 0.198 |  | 0.163 | 0.182 | 0.171
